Measured values published in EP4707280A1, “1,4-CINEOLE DERIVATIVE AND INTERMEDIATE THEREOF, HERBICIDE CONTAINING SAID DERIVATIVE AS ACTIVE INGREDIENT, METHOD FOR USING HERBICIDE, AND METHOD FOR PREPARING AGROCHEMICAL COMPOSITION” (HOKKO CHEMICAL INDUSTRY CO., LTD., priority 2023, dated 2024).

What was measured:
Assay type in all cases: in vivo
[1] = system: Echinochloa crus-galli var. formosensis; assay: Test Example 6: herbicidal effect test by application during growth period of paddy rice (low dose); details: Echinochloa crus-galli; 7.5 g per 10 ares; applied seven days after sowing, flooded pots; 14 days after application; read-out: weed inhibition rate
Procedure, shortened: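 Paddy-soil pots, flooded ~3 cm after sowing weed seeds at 0-1 cm depth, greenhouse-grown. Seven days after sowing, diluted emulsifiable concentrate applied by dropper at 7.5 g active ingredient per 10 ares. Weed inhibition rate (%) scored 14 days after application, in duplicate.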

Scirpus juncoides [2] = assay: Test Example 2: herbicidal effect test by application during growth period of paddy rice; details: Schoenoplectiella juncoides; 120 g per 10 ares; applied seven days after sowing, flooded pots; 14 days after application; read-out: weed inhibition rate
Procedure, shortened: (§1)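 Steps: puddle fertilized paddy soil; sow 30 seeds of each weed at 0–1 cm; flood to roughly 3 cm and keep in a glasshouse; at day 7 drop in diluted emulsifiable concentrate (120 g a.i. per 10 ares); score inhibition (%) 14 days later, two replicates.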

Monochoria vaginalis [3] = assay: as above; details: Pontederia vaginalis; 120 g per 10 ares; applied seven days after sowing, flooded pots; 14 days after application; read-out: weed inhibition rate
Procedure, shortened: as §1

[4] = system: Echinochloa crus-galli var. formosensis; assay: as above; details: Echinochloa crus-galli; 120 g per 10 ares; applied seven days after sowing, flooded pots; 14 days after application; read-out: weed inhibition rate
Procedure, shortened: as §1

Digitaria ciliaris [5] = assay: Test Example 4: herbicidal effect test by stem and leaf treatment in upland field; details: Digitaria ciliaris; 120 g per 10 ares; sprayed seven days after sowing, upland soil; 14 days after application; read-out: weed inhibition rate
Digitaria ciliaris [6] = assay: Test Example 3: herbicidal effect test by soil application in upland field; details: Digitaria ciliaris, 120 g per 10 ares, sprayed one day after sowing, 14 days after application, read-out: weed inhibition rate
Procedure, shortened: (§2)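 Pre-emergence test: seeds mixed into top 1 cm of alluvial loam upland soil in pots; emulsifiable concentrate diluted in water sprayed on soil one day after sowing at 100 L/10 a, 120 g a.i./10 a. Weed inhibition rate (%) scored at 14 days, in duplicate.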

Echinochloa crus-galli [7] = assay: as above; details: Echinochloa crus-galli, 120 g per 10 ares, sprayed one day after sowing, 14 days after application, read-out: weed inhibition rate
Procedure, shortened: as §2

Echinochloa crus-galli [8] = assay: Test Example 4: herbicidal effect test by stem and leaf treatment in upland field; details: Echinochloa crus-galli; 120 g per 10 ares; sprayed seven days after sowing, upland soil; 14 days after application; read-out: weed inhibition rate
Echinochloa crus-galli [9] = assay: Test Example 8: herbicidal effect test by stem and leaf treatment in upland field (low dose); details: Echinochloa crus-galli; 7.5 g per 10 ares; sprayed seven days after sowing, upland soil; 14 days after application; read-out: weed inhibition rate
Scirpus juncoides [10] = assay: Test Example 5: herbicidal effect test by soil application in paddy rice (low dose); details: Schoenoplectiella juncoides, 336 h, 7.5 g per 10 ares, applied immediately after sowing, flooded pots, 14 days after application, read-out: weed inhibition rate
Procedure, shortened: (§3)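 Flooded-paddy soil application at low dose (7.5 g a.i. per 10 ares), given by dropper as diluted emulsifiable concentrate directly after sowing weeds 0–1 cm deep. Effect evaluated after 14 days in duplicate.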

Monochoria vaginalis [11] = assay: as above; details: Pontederia vaginalis, 336 h, 7.5 g per 10 ares, applied immediately after sowing, flooded pots, 14 days after application, read-out: weed inhibition rate
Procedure, shortened: as §3

CC(C)C12CC(OCc3ccccc3F)C(C)(CC1Br)O2 (centres unmarked) [1-1355, 5-bromo-2-[(2-fluorophenyl)methoxy]-1-methyl-4-isopropyl-7-oxabicyclo[2.2.1]heptane]
≥ 80%: inhibition at 75 g/ha [1] | inhibition at 1200 g/ha (Scirpus juncoides [2]) | inhibition at 1200 g/ha (Monochoria vaginalis [3]) | inhibition at 1200 g/ha [4] | inhibition at 1200 g/ha (Digitaria ciliaris [5]) | inhibition at 1200 g/ha (Digitaria ciliaris [6]) | inhibition at 1200 g/ha (Echinochloa crus-galli [7]) | inhibition at 1200 g/ha (Echinochloa crus-galli [8]) | inhibition at 75 g/ha (Echinochloa crus-galli [9]) | inhibition at 75 g/ha (Scirpus juncoides [10]) | inhibition at 75 g/ha (Monochoria vaginalis [11])

CC(C)[C@]12C[C@@H](OCc3ccccc3F)[C@](C)(C[C@@H]1OCC1CC1)O2 [1-1603, (1S,2R,4R,5S)-5-(cyclopropylmethoxy)-2-[(2-fluorophenyl)methoxy]-1-methyl-4-isopropyl-7-oxabicyclo[2.2.1]heptane]
≥ 80%: inhibition at 75 g/ha [1] | inhibition at 1200 g/ha (Scirpus juncoides [2]) | inhibition at 1200 g/ha (Monochoria vaginalis [3]) | inhibition at 1200 g/ha [4] | inhibition at 1200 g/ha (Digitaria ciliaris [5]) | inhibition at 1200 g/ha (Digitaria ciliaris [6]) | inhibition at 1200 g/ha (Echinochloa crus-galli [7]) | inhibition at 1200 g/ha (Echinochloa crus-galli [8]) | inhibition at 75 g/ha (Echinochloa crus-galli [9]) | inhibition at 75 g/ha (Scirpus juncoides [10]) | inhibition at 75 g/ha (Monochoria vaginalis [11])

Cc1ccccc1CO[C@@H]1C[C@]2(C(C)C)O[C@@]1(C)CC2=O [2-3, (1R,4S,5R)-1-isopropyl-4-methyl-5-((2-methylbenzyl)oxy)-7-oxabicyclo[2.2.1]heptan-2-one]
≥ 80%: inhibition at 75 g/ha [1] | inhibition at 1200 g/ha (Scirpus juncoides [2]) | inhibition at 1200 g/ha (Monochoria vaginalis [3]) | inhibition at 1200 g/ha [4] | inhibition at 1200 g/ha (Digitaria ciliaris [5]) | inhibition at 1200 g/ha (Digitaria ciliaris [6]) | inhibition at 1200 g/ha (Echinochloa crus-galli [7]) | inhibition at 1200 g/ha (Echinochloa crus-galli [8]) | inhibition at 75 g/ha (Echinochloa crus-galli [9]) | inhibition at 75 g/ha (Scirpus juncoides [10]) | inhibition at 75 g/ha (Monochoria vaginalis [11])

CC(C)[C@]12C[C@@H](OCc3ccccc3F)[C@](C)(CC1=O)O2 [2-9, (1R,4S,5R)-5-((2-fluorobenzyl)oxy)-1-isopropyl-4-methyl-7-oxabicyclo[2.2.1]heptan-2-one]
≥ 80%: inhibition at 75 g/ha [1] | inhibition at 1200 g/ha (Scirpus juncoides [2]) | inhibition at 1200 g/ha (Monochoria vaginalis [3]) | inhibition at 1200 g/ha [4] | inhibition at 1200 g/ha (Digitaria ciliaris [5]) | inhibition at 1200 g/ha (Digitaria ciliaris [6]) | inhibition at 1200 g/ha (Echinochloa crus-galli [7]) | inhibition at 1200 g/ha (Echinochloa crus-galli [8]) | inhibition at 75 g/ha (Echinochloa crus-galli [9]) | inhibition at 75 g/ha (Scirpus juncoides [10]) | inhibition at 75 g/ha (Monochoria vaginalis [11])

CC(C)[C@]12C[C@@H](OCc3ccccc3Br)[C@](C)(CC1=O)O2 [2-13, (1R,4S,5R)-5-((2-bromobenzyl)oxy)-1-isopropyl-4-methyl-7-oxabicyclo[2.2.1]heptan-2-one]
≥ 80%: inhibition at 75 g/ha [1] | inhibition at 1200 g/ha (Scirpus juncoides [2]) | inhibition at 1200 g/ha (Monochoria vaginalis [3]) | inhibition at 1200 g/ha [4] | inhibition at 1200 g/ha (Digitaria ciliaris [5]) | inhibition at 1200 g/ha (Digitaria ciliaris [6]) | inhibition at 1200 g/ha (Echinochloa crus-galli [7]) | inhibition at 1200 g/ha (Echinochloa crus-galli [8]) | inhibition at 75 g/ha (Echinochloa crus-galli [9]) | inhibition at 75 g/ha (Scirpus juncoides [10]) | inhibition at 75 g/ha (Monochoria vaginalis [11])

CC(C)[C@]12C[C@@H](OCc3c(F)cccc3F)[C@](C)(CC1=O)O2 [2-20, (1R,4S,5R)-5-((2,6-difluorobenzyl)oxy)-1-isopropyl-4-methyl-7-oxabicyclo[2.2.1]heptan-2-one]
≥ 80%: inhibition at 75 g/ha [1] | inhibition at 1200 g/ha (Scirpus juncoides [2]) | inhibition at 1200 g/ha (Monochoria vaginalis [3]) | inhibition at 1200 g/ha [4] | inhibition at 1200 g/ha (Digitaria ciliaris [5]) | inhibition at 1200 g/ha (Digitaria ciliaris [6]) | inhibition at 1200 g/ha (Echinochloa crus-galli [7]) | inhibition at 1200 g/ha (Echinochloa crus-galli [8]) | inhibition at 75 g/ha (Echinochloa crus-galli [9]) | inhibition at 75 g/ha (Scirpus juncoides [10]) | inhibition at 75 g/ha (Monochoria vaginalis [11])

CC(C)[C@]12C[C@@H](OCc3c(F)cccc3Cl)[C@](C)(CC1=O)O2 [2-28, (1R,4S,5R)-5-((2-chloro-6-fluorobenzyl)oxy)-1-isopropyl-4-methyl-7-oxabicyclo[2.2.1]heptan-2-one]
≥ 80%: inhibition at 75 g/ha [1] | inhibition at 1200 g/ha (Scirpus juncoides [2]) | inhibition at 1200 g/ha (Monochoria vaginalis [3]) | inhibition at 1200 g/ha [4] | inhibition at 1200 g/ha (Digitaria ciliaris [5]) | inhibition at 1200 g/ha (Digitaria ciliaris [6]) | inhibition at 1200 g/ha (Echinochloa crus-galli [7]) | inhibition at 1200 g/ha (Echinochloa crus-galli [8]) | inhibition at 75 g/ha (Echinochloa crus-galli [9]) | inhibition at 75 g/ha (Scirpus juncoides [10]) | inhibition at 75 g/ha (Monochoria vaginalis [11])
